Data set [1] in a line: Free-radical scavenging: inhibition of autoxidation of 1-epinephrine (Misra and Fridovich). The format is biochemical. The conditions noted are these: 1-epinephrine 1 x 10⁻⁴M, EDTA 1 x 10⁻⁴M, 30°C, absorbance at 480; read-out: 50% inhibition of the autoxidation rate (ID₅₀). How it is done:
2-(3,4-dihydro-6-hydroxy-2,5,7,8-tetramethyl-2H-1-benzopyran-2-yl)ethyl-N,N,N-trimethylammonium bromide, described in Example 1, was evaluated for its ability to reduce superoxide radicals in an assay described by H.P. Misra and J. Fridovich, 1972, J. Biol. Chem. 247, 3170-5. In this assay, the rate of autoxidation of 1-epinephrine (1 x 10⁻⁴M) in the presence of EDTA (1 x 10⁻⁴M) at 30°C is followed spectrophotometrically following the increase of absorbance at 480 mn. […] For comparison, 3,4-dihydro-6-hydroxy-2,5,7,8-tetramethyl-2H-1-benzopyran-2-carboxylic acid (CAS 53188-07-1) gave ID₅₀= 105 ± 8 µM and d,1-penicillamine (CAS 52-67-5)ID₅₀ = 73 µM in parallel experiments. Misra and Fridovich report that bovine superoxide dismutase gave 50% inhibition at […].

In data set [2] the test system is ligation-induced infarcted and reperfused rats. The data set is described as follows: Cardioprotective effects: coronary ligation 60 min, reperfusion 30 min, infarcted area / area at risk. Type of data set: in vivo. As for the experimental part: 2-(3,4-Dihydro-2,5,7,8-tetramethyl-6-methylcarbonyloxy-2H-1-benzopyran-2-yl)ethyl-N,N,N-trimethylammonium bromide was evaluated in ligation-induced infarcted and reperfused rats as follows. One of two groups of rats was infused intravenously with a solution of test compound in saline at a rate of 2.3 ml/h (10 mg/kg/h). The control group was infused with saline at the same rate. After 10 min of drug infusion, coronary arteries were ligated surgically for 60 min, ligation was loosened to allow reperfusion for 30 min. The ligation was […] dye (Evans Blue) was injected. The animals were sacrificed and the heart ventricles were removed and weighed. The unstained tissue was dissected and weighed; this represents the "area at risk". i.e. the area that was deprived of blood supply by ligation. To determine the infarcted area, the tissue was incubated with 2,3,5-triphenyltetrazolium chloride. Infarcted tissue became light colored and could be dissected and weighed. Thus, for each rat that survived the ligation a measurement of "area at risk" and of "infarcted area" was obtained and the ratio was calculated as given in Tables II and III. TABLE II 3,4-Dihydro-2-(2-dimethylaminoethyl)-2,5,7,8-tetramethyl-2H-1-benzopyran-6-yl acetate hydrochloride was evaluated in ligation-induced infarcted and reperfused rats as follows. One of two groups of rats was infused intravenously with a solution of test compound in saline at a rate of 2.3 ml/h (10 mg/kg/h). The control group was infused with saline at the same rate. After 10 min of drug, coronary arteries were ligated surgically for 60 min, ligation was loosened to allow reperfusion for 30 min. The ligation was […] dye (Evans Blue) was injected. The animals were […] heart […] removed and weighed. The unstained tissue was dissected and weighed; this represents the "area at risk", i.e. the area that was deprived of blood supply by ligation. To determine the infarcted area, the tissue was incubated with 2,3,5-triphenyltetrazolium chloride. Infarcted tissue became light colored and was dissected and weighed. Thus, for each rat that survived the ligation a measurement of "area at risk" and of "infarcted area" was obtained and the ratio was calculated as shown in the following tables.

Data set [3] can be described thus: Affinity for cardiac tissue: radioactivity in heart and blood after intravenous 14C-labelled compound. The settings on record: rats, 0.91 mg base/kg intravenous. Type of data set: in vivo. How it is done:
Following the procedure described in Example11, but using ¹⁴C-methyl p-toluenesulfonate in place of "cold material", ¹⁴C-labelled 2-(3,4-dihydro-2,5,7,8-tetramethyl-6-methylcarbonyloxy-2H-1benzopyranan-2-yl)ethyl-N,N,N-tri-¹⁴C-methylammonium p-toluenesulfonate was synthesized. The preparation was diluted with "cold material" to 11.74 µCi/mg base.
24 rats were given 0.91 mg base/kg by inravenous route (by canula into the jugular vein). The animals were sacrificed in groups of 3 at the time periods indicated in Table I. Immediately before sacrifice a 0.5 ml blood sample was taken from an indwelling catheter in the carotid artery. The hearts were removed, blotted and weighed. The samples of tissue and blood were solubilized with Luma Solve (a quarternary ammonium hydroxide preparation) and radioactivity was determined in a scintillation counter.

The mark [4] stands for this setting: treated group, intravenous infusion 10 mg/kg/h, individual rats, listed as 3,4-Dihydro-2-(2-dimethylaminoethyl)-2,5,7,8-tetramethyl-2H-1-benzopyran-6-yl ac, acetate hydrochloride.

Where “and” joins values, the source holds several entries; their conditions need not be identical. Equal entries are not always repeated.

Consider `Cc1c(C)c2c(c(C)c1O)CCC(C)(C(=O)O)O2` (stereo not shown) [3,4-dihydro-6-hydroxy-2,5,7,8-tetramethyl-2H-1-benzopyran-2-carboxylic acid], for which, in data set [1], the IC50 was 105 ± 8 µM.
Regarding `CC(=O)Oc1c(C)c(C)c2c(c1C)CCC(C)(CCN(C)C)O2.Cl` (stereo not shown) [Example 4, 3,4-Dihydro-2-(2-dimethylaminoethyl)-2,5,7,8-tetramethyl-2H-benzopyran-6-yl acetate hydrochloride], in data set [2] (treated group (10 mg/kg/h) versus saline control group), the reduction of infarction worked out at 48.2%. In data set [2] (treated group, intravenous infusion 10 mg/kg/h, group average), the “Ratio % (infarcted tissue / tissue at risk), average” value was 38.0%. For the same compound, in data set [2] (setting [4]), the Infarcted tissue was 337 mg and 80 mg and 51 mg (2×) and 346 mg and 18 mg and 294 mg and 34 mg; the “Ratio % (infarcted tissue / tissue at risk)” value is 70.1% and 40.3% and 10% and 83.2% and 4% and 71.6% and 17.5% and 7.0%.
On to `Cc1c(C)c2c(c(C)c1O)CCC(C)(CC[N+](C)(C)C)O2` (stereo not shown) [Example 10, 2-(3,4-Dihydro-6-hydroxy-2,5,7,8-tetramethyl-2H-1-benzo-pyran-2-yl)ethyl-N,N,N-trimethylammonium bromide], for which the IC50 in data set [1] turned out to be 138 ± 14 µM.
Regarding `CC(=O)Oc1c(C)c(C)c2c(c1C)CCC(C)(CC[N+](C)(C)C)O2.[Br-]` (stereo not shown) [Example 11, 2-(3,4-Dihydro-2,5,7,8-tetramethyl-6-methylcarbonyloxy-2H-1-benzopyran-2-yl)ethyl-N,N,N-trimethylammonium bromide], the Infarcted tissue in data set [2] (treated group, intravenous infusion 10 mg/kg/h, individual rats) is 23 mg and 27 mg and 39 mg and 33 mg.
Turning to `CC(=O)Oc1c(C)c(C)c2c(c1C)CCC(C)(CC[N+](C)(C)C)O2.Cc1ccc(S(=O)(=O)[O-])cc1` (stereo not shown) [Example 18, 2-(3,4-Dihydro-2,5,7,8-tetramethyl-6-methylcarbonyloxy-2H-1-benzopyran-2-yl)ethyl-N,N,N-trimethylammonium p-toluenesulfonate], the Ratio heart/blood in data set [3] (5 min after administration) was 3.05±1.46; in data set [3] (15 min after administration) it was 6.90±8.34; in data set [3] (30 min after administration) it was 17.33±5.42; in data set [3] (1 hour after administration) it was 20.09±2.54; in data set [3] (2 hours after administration), 21.90±3.56; in data set [3] (4 hours after administration, listed as 2-(3,4-dihydro-2,5,7,8-tetramethyl-6-methylcarbonyloxy-2H-1benzopyranan-2-yl)eth, p-toluenesulfonate), 27.15 and 27.15±4.30. For the same compound, the Ratio heart/blood in data set [3] (6 hours after administration) came out at 18.62±2.77; in data set [3] (8 hours after administration), 15.12±2.69. In addition, the ng equiv/ml blood in data set [3] (5 min after administration) worked out at 0.434±0.351 ng equiv/ml; in data set [3] (15 min after administration) it was 0.590±0.295 ng equiv/ml; in data set [3] (30 min after administration), 0.124±0.032 ng equiv/ml; in data set [3] (1 hour after administration) it was 0.096±0.008 ng equiv/ml; in data set [3] (2 hours after administration), 0.086±0.041 ng equiv/ml; in data set [3] (4 hours after administration), 0.054±0.013 ng equiv/ml. Further, the ng equiv/ml blood in data set [3] (6 hours after administration) was 0.048±0.007 ng equiv/ml; in data set [3] (8 hours after administration), 0.048±0.012 ng equiv/ml. In addition, in data set [3] (after 8 h), the “concentration of drug in heart tissue” value was found to be 0.65 µg equiv/g.
In the case of d,1-penicillamine, the IC50 in data set [1] was determined as 73 µM.

Values taken from patent EP0369874A2, “Cardioprotective tocopherol analogs” (MERRELL DOW PHARMACEUTICALS INC., priority 1988, dated 1990).
